TGI data for 21 compounds are collected here from PubChem BioAssay (NCI).

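Results reflect a 48-hour exposure of cells in 96-well plates to compound at five concentrations. TGI is the concentration that stops growth completely.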

What all share (test): DTP human tumour cell line panel, 48 h
In experiment [1] the test system is LOX IMVI melanoma.
The test system of experiment [2] is K-562 leukemia.
The test system of experiment [3] is SF-295 CNS.
The test system of experiment [4] is T-47D breast.
Experiment [5] deals with NCI/ADR-RES ovarian.
The test system of experiment [6] is HS 578T breast.
In experiment [7] the test system is SR leukemia.
In experiment [8] the test system is ACHN renal.
For experiment [9], the system named is IGROV1 ovarian.
The test system of experiment [10] is EKVX NSCLC.

For the compound `COC(=O)C1=C(O)C(C(=O)OC)[C@]2(O)[C@H](C(=O)OC)[C@H]1C[C@@H](c1ccc(Cl)cc1)[C@H]2C(=O)OC` (stereo partly specified), the TGI in [1] was 30.1 µM; in experiment [2] it was above 100 µM; in experiment [3] it was 20.6 µM; in experiment [4], above 100 µM; in experiment [5], above 100 µM; in experiment [6], 30.2 µM. Besides, the TGI in experiment [7] is above 100 µM; in experiment [8] it was 39.9 µM; in experiment [9], above 100 µM; in experiment [10], 30.6 µM.

In the case of `CCC/C=C/c1cc2c(cc1O)CC[C@@H]1[C@@H]2CC[C@]2(C)[C@@H](O)CC[C@@H]12`, the TGI is 29.3 µM in experiment [1]; 45.5 µM in experiment [2]; 34.9 µM in experiment [3]; 77.1 µM in experiment [4]; 44.1 µM in experiment [5]; 57.6 µM in experiment [6]. Further, the TGI in experiment [7] worked out at 45.7 µM; in experiment [8], 34.2 µM; in experiment [9], 49.4 µM; in [10] it was 41.2 µM.

`Cc1ccc([N+](=O)[O-])cc1S(=O)(=O)Nc1ccc(C2=NN(c3ccc([N+](=O)[O-])cc3[N+](=O)[O-])C(c3cccs3)C2)cc1` (stereo unspecified): the TGI was 39.9 µM in experiment [1]; above 100 µM in [2]; above 100 µM in experiment [3]; above 100 µM in [4]; 41.4 µM in experiment [5]; 79.1 µM in [6]. Also, the TGI in experiment [7] is 58.6 µM; in experiment [8], 81.6 µM; in experiment [9], 53.7 µM; in experiment [10] it was 59.2 µM.

Turning to `CC(=O)c1sc2c(c1OC(=O)c1ccco1)c(=O)n(-c1ccccc1)c(=S)n2-c1ccccc1`, the TGI was 39.3 µM in [1]; above 100 µM in experiment [2]; 49.2 µM in experiment [3]; 36.4 µM in experiment [4]; 51.2 µM in [5]; 20 µM in experiment [6]. Moreover, the TGI in experiment [7] stood at 72.2 µM; in experiment [9], 54.2 µM; in [10], 59.1 µM.

On to `C[C@]12CC[C@H](OC(=O)Cc3ccc(N(CCCl)CCCl)cc3)CC1=CC[C@@H]1[C@@H]2CC[C@]2(C)C(=O)CC[C@@H]12`, for which the TGI in experiment [1], in [2], in [4], in experiment [5], in [6] and in [7] was above 100 µM in each case. Besides, the TGI in experiment [8], in experiment [9] and in experiment [10] was above 100 µM in each case.

As to `Cc1cc2c(cc1C(=O)CCC(=O)O)CC1(C2)Cc2cc(C)c(C(=O)CCC(=O)O)cc2C1`, the TGI in experiment [1], in [2], in experiment [3], in [4], in [5] and in experiment [6] was above 100 µM throughout. The TGI in experiment [7], in experiment [8], in experiment [9] and in experiment [10] was above 100 µM each time.

On to `CCOC(=O)C1(Cc2ccccc2)C=CN(C(=O)c2ccccc2)C=C1`, for which the TGI in [1] was above 100 µM; in experiment [2] it was above 100 µM; in experiment [3], above 100 µM; in [4] it was 78.8 µM; in experiment [5], above 100 µM; in experiment [6] it was above 100 µM. Further, the TGI in experiment [7] was 67.5 µM; in experiment [8], above 100 µM; in experiment [9] it was above 100 µM; in experiment [10], above 100 µM.

Take `c1ccc(-c2cn3c(nc4ccccc43)c(-c3ccccc3)n2)cc1`: the TGI was above 100 µM in experiment [1]; above 100 µM in [2]; above 71.9 µM in experiment [3]; above 71.3 µM in [4]; above 100 µM in experiment [5]; above 94.2 µM in [6]. Moreover, the TGI in experiment [7], in experiment [8], in [9] and in [10] was above 100 µM throughout.

For `CC(C)(C)/C(=N\Nc1nc2ccccc2[nH]1)c1ccccn1`, the TGI in experiment [1], in [2], in experiment [4], in experiment [5], in experiment [6] and in experiment [7] was above 100 µM each time. In addition, the TGI in experiment [8] and in [9] was above 100 µM throughout.

With `CCOC(=O)c1cc2c([nH]1)c(O)cc1c2ccn1Cc1ccccc1`, the TGI in experiment [1] is 28.1 µM; in [2], 25.3 µM; in experiment [3], 31.6 µM; in [4], 11.9 µM; in experiment [5], 38.5 µM; in experiment [6] it was 77.4 µM. Further, the TGI in experiment [7] was 16.9 µM; in experiment [9] it was 54.3 µM; in experiment [10] it was 26.7 µM.

`Ic1ccc2c(c1)N(c1ccccc1)c1cc(N=c3ccc4nc5ccc(I)cc5n(-c5ccccc5)c-4c3)ccc1N2`: the TGI in [2], in experiment [3], in experiment [4], in [5], in experiment [6] and in [7] was above 100 µM throughout. Further, the concentration for total growth inhibition (TGI) in [8], in experiment [9] and in [10] was above 100 µM throughout.

`O=C(O)c1ccccc1/C=N/NC1=NCCN1`: the TGI in experiment [1], in experiment [2], in [3], in [4], in experiment [5] and in [6] was above 100 µM in each case. Moreover, the TGI in [7], in experiment [8], in experiment [9] and in [10] was above 100 µM throughout.

For `O=C1CN(C(=O)C2CCCN2C(=O)C2CCCN2)C(=O)CN1` (stereo unspecified), the TGI in experiment [1], in experiment [2], in experiment [3], in [4], in experiment [5] and in experiment [6] was above 100 µM each time. Moreover, the TGI in experiment [7], in [8], in [9] and in [10] was above 100 µM in each case.

`COc1ccc(CC2CCc3nc(N)nc(N)c3C2)cc1OC` (stereo unspecified): the TGI in experiment [1] is 21.1 µM; in experiment [2], above 100 µM; in experiment [3], above 41.4 µM; in experiment [4], above 82.6 µM; in experiment [5] it was 16.3 µM; in experiment [6] it was above 100 µM. Further, the TGI in experiment [7] is above 100 µM; in experiment [8], above 63.1 µM; in [9], above 64 µM; in experiment [10], above 91.2 µM.

For `CCCCC(=O)c1ccc2ccccc2c1O`, the TGI in [1], in experiment [2], in [3], in experiment [4], in [5] and in [6] was above 100 µM in each case. Also, the TGI in [7], in experiment [8], in experiment [9] and in experiment [10] was above 100 µM each time.

Regarding `N#Cc1c(=O)n(-c2ccccc2)c(O)c2c(N)n[nH]c12`, the TGI in experiment [1], in [2], in [4], in experiment [5], in experiment [6] and in experiment [7] was above 100 µM throughout. Also, the TGI in experiment [9] and in experiment [10] was above 100 µM throughout.

With `O=C1N=C(SC2OC(CO)C(O)C(O)C2O)S/C1=C\c1ccccc1` (stereo unspecified), the TGI in experiment [1], in experiment [2], in experiment [3], in experiment [4], in [5] and in experiment [6] was above 100 µM each time. Besides, the TGI in [7], in [8] and in experiment [9] was above 100 µM in each case.

Turning to `Cc1cc(C)c2c(O)c(S(=O)(=O)c3ccc(Cl)cc3)c(=O)oc2c1`, the TGI in experiment [2], in experiment [3], in experiment [4], in experiment [5], in [6] and in [7] was above 100 µM in each case. In addition, the TGI in experiment [9] was above 100 µM; in experiment [10], 93 µM.

Take `CN(C)c1ccc(/C=C2/NC(=S)NC2=O)cc1`: the TGI in experiment [1], in [3], in experiment [4], in experiment [5], in [6] and in experiment [7] was above 100 µM in each case. Moreover, the TGI in [8], in experiment [9] and in experiment [10] was above 100 µM in each case.

`Cc1cc(S(=O)(=O)Nc2nc(N)n(-c3ccccn3)n2)c(S)cc1Cl`: the TGI in experiment [1], in experiment [2], in experiment [4], in [5], in experiment [6] and in [7] was above 100 µM each time. Also, the TGI in experiment [8], in experiment [9] and in experiment [10] was above 100 µM each time.

`CCOC(=O)c1c(NC(=O)c2cccs2)sc2c1CCC2`: the concentration for total growth inhibition (TGI) in experiment [2], in experiment [3], in experiment [4], in [5], in [6] and in experiment [7] was above 100 µM in each case. For the same compound, the TGI in experiment [8], in experiment [9] and in experiment [10] was above 100 µM in each case.
